Measurements reported in PMC3201797 (Bioorganic & medicinal chemistry letters, 2010).

Assays:
Format in all cases: biochemical
[1] = target: T1, prostate-specific membrane antigen (PSMA) (Homo sapiens, UniProt Q04609); assay: PSMA enzyme inhibition assay with purified PSMA
[2] = target: T1, prostate-specific membrane antigen (PSMA); assay: PSMA enzyme inhibition assay
[3] = target: T1, prostate-specific membrane antigen (PSMA); assay: PSMA enzyme inhibition assay with purified PSMA; remark: listed apart in the source

T1 sequence (Q04609 whole entry): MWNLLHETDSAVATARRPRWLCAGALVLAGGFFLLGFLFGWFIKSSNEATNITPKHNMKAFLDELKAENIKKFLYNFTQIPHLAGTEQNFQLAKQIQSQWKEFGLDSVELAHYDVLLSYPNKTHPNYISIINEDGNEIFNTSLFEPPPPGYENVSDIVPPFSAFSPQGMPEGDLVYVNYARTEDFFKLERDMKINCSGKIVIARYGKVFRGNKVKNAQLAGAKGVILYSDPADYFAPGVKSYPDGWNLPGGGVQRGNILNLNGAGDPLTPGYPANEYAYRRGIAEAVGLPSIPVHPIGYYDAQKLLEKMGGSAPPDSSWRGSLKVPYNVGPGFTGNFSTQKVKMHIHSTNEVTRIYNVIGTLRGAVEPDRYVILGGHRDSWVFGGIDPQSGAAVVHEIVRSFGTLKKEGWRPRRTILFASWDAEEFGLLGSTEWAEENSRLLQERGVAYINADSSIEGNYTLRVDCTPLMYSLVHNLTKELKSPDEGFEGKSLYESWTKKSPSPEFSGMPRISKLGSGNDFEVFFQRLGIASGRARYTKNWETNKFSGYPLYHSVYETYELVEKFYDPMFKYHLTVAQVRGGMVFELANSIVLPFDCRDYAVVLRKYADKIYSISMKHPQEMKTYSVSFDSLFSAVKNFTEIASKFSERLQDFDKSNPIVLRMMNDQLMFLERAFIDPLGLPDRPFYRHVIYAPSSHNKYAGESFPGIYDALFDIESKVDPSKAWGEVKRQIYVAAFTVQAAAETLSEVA

Substance: CTT-54.2
- IC50 [1]: 144 nM

Substance: Cy5.5 free acid
- IC50 [2]: 6100 nM

Substance: Cy5.5-CTT-54.2
- IC50 [3]: 0.55 nM
